Values after ≈ are worked out from the molar mass of the structure shown. Where two headings read alike, the source gives them in different places.
Tests used:
[1] = Solubility of palbociclib (free base) in various aqueous buffers, with total degradation by HPLC; assay type: physicochemical; settings: for solubility at 28 h: aqueous buffer solution, 25 °C, thermodynamic from solid
Experimental: The solubility of palbociclib (free base) was assessed in various aqueous buffer solutions and mixtures thereof. The buffers were prepared at concentrations ranging from 0.01 M to 0.2 M and at pH values ranging from 2.0 to 8.4. Samples were prepared by weighing and transferring approximately 200 mg of palbociclib to 3-4 mL of the buffer. The solutions were vortexed and placed in a temperature cycle chamber for 8 hours at 25° C., followed by 12 hours at 40° C., then 8 hours at 25° C. The resulting solutions were then analyzed by HPLC to determine the solubility (mg/mL) of palbociclib in the buffer. […] NT=Not tested.

[2] = Effect of pH on the oral aqueous solution (degradation, precipitation); assay type: physicochemical; settings: pH values above about 4.3
From the text: In some embodiments, the oral aqueous solution has a pH of from about 3.0 to about 4.5. In some embodiments, the oral aqueous solution has a pH of from about 3.5 to about 4.3. In frequent embodiments, the oral aqueous solution has a pH of from about 3.6 to about 4.0. In some such embodiments, the oral aqueous solution has a pH of about 3.8.

[3] = Sample P: 0.032M Malic Acid, pH NT
[4] = Sample Q: 0.02M Malic Acid, pH NT
[5] = Sample R: 0.01M Malic Acid, pH NT
[6] = aqueous buffer systems of lactic acid and malic acid

## CC(=O)c1c(C)c2cnc(Nc3ccc(N4CCNCC4)cn3)nc2n(C2CCCC2)c1=O [palbociclib, 6-acetyl-8-cyclopentyl-5-methyl-2-(5-piperazin-1-yl-pyridin-2-ylamino)-8H-pyrido[2,3-d]pyrimidin-7-one]
[1]; Sample A: 0.2M Citric Acid, pH 2.02, new HPLC peaks greater than 0.05%
  Total Degradation: 0.52%
[1]; Sample B: 0.2M Malic Acid, pH 2.00
  Total Degradation: 0.20%
[1]; Sample C: 0.2M DL Lactic Acid, pH 2.07
  Total Degradation: 0%
[1]; Sample D: 0.2M Succinic acid, pH 2.42
  Total Degradation: 0.66%
[1]; Sample E: 0.2M Sodium succinate, pH 8.38
  Total Degradation: 0%
[1]; Sample F: 0.2M Sodium dihydrogen phosphate dihydrate, pH 2.01
  Total Degradation: 1.27%
[1]; Sample G: 9.5 mL D + 0.5 mL E, pH 3.15
  Total Degradation: 0.29%
[1]; Sample H: 9 mL D + 1 mL E, pH 3.45
  Total Degradation: 3.03%
[1]; Sample I: 8 mL D + 2 mL E, pH 3.93
  Total Degradation: 3.43%
[1]; Sample J: 5 mL D + 5 mL E, pH 4.62
  Total Degradation: 1.31%
[1]; Sample K: 5 mL D + 10 mL E, pH 4.98
  Total Degradation: 1.08%
[1]; Sample L: 5 mL D + 15 mL E, pH 5.25
  Total Degradation: 1.46%
[1]; Sample M: 0.1M DL Lactic Acid, pH 2.31
  Total Degradation: 0.00%
[1]; Sample N: 0.05M DL Lactic Acid, pH 2.46
  Total Degradation: 0.00%
[1]; Sample O: 0.01M DL Lactic Acid, pH 2.83
  Total Degradation: 0.19%
[1]; [3]
  Solubility: 530 µg/mL (≈ 1.18 mM)
  Total Degradation: 1.66%
[1]; [4]
  Solubility: 600 µg/mL (≈ 1.34 mM)
  Total Degradation: 1.62%
[1]; [5]
  Solubility: 600 µg/mL (≈ 1.34 mM)
  Total Degradation: 1.63%
[1]; pH 2, aqueous buffer, Sample B: 0.2M Malic Acid, pH 2.00, read-out: Solubility
  solubility at 28 h: 15700 µg/mL (≈ 35.1 mM)
[1]; pH 2.01, aqueous buffer, Sample F: 0.2M Sodium dihydrogen phosphate dihydrate, pH 2.01, read-out: Solubility
  solubility at 28 h: 650 µg/mL (≈ 1.45 mM)
[1]; pH 2.02, aqueous buffer, Sample A: 0.2M Citric Acid, pH 2.02, temperature cycle 25/40/25° C., read-out: Solubility
  solubility at 28 h: 4000 µg/mL (≈ 8.94 mM)
[1]; pH 2.07, aqueous buffer, 0.2M DL lactic acid buffer, read-out: Amount dissolved with solution still clear (saturated solubility not yet reached)
  solubility at 28 h: > 45700 µg/mL
[1]; pH 2.07, aqueous buffer, Sample C: 0.2M DL Lactic Acid, pH 2.07, read-out: Solubility
  solubility at 28 h: 45700 µg/mL (≈ 102 mM)
[1]; pH 2.31, aqueous buffer, Sample M: 0.1M DL Lactic Acid, pH 2.31, read-out: Solubility
  solubility at 28 h: 36300 µg/mL (≈ 81.1 mM)
[1]; pH 2.42, aqueous buffer, Sample D: 0.2M Succinic acid, pH 2.42, read-out: Solubility
  solubility at 28 h: 1100 µg/mL (≈ 2.46 mM)
[1]; pH 2.46, aqueous buffer, Sample N: 0.05M DL Lactic Acid, pH 2.46, read-out: Solubility
  solubility at 28 h: 16200 µg/mL (≈ 36.2 mM)
[1]; pH 2.83, aqueous buffer, Sample O: 0.01M DL Lactic Acid, pH 2.83, read-out: Solubility
  solubility at 28 h: 3800 µg/mL (≈ 8.49 mM)
[1]; pH 3.15, aqueous buffer, Sample G: 9.5 mL D + 0.5 mL E (succinic acid/sodium succinate), pH 3.15, read-out: Solubility
  solubility at 28 h: 1700 µg/mL
[1]; pH 3.45, aqueous buffer, Sample H: 9 mL D + 1 mL E, pH 3.45, read-out: Solubility
  solubility at 28 h: 340 µg/mL
[1]; pH 3.93, aqueous buffer, Sample I: 8 mL D + 2 mL E, pH 3.93, read-out: Solubility
  solubility at 28 h: 67 µg/mL
[1]; pH 4.62, aqueous buffer, Sample J: 5 mL D + 5 mL E, pH 4.62, read-out: Solubility
  solubility at 28 h: 68 µg/mL
[1]; pH 4.98, aqueous buffer, Sample K: 5 mL D + 10 mL E, pH 4.98, read-out: Solubility
  solubility at 28 h: 55 µg/mL
[1]; pH 5.25, aqueous buffer, Sample L: 5 mL D + 15 mL E, pH 5.25, read-out: Solubility
  solubility at 28 h: 91 µg/mL
[1]; pH 8.38, aqueous buffer, Sample E: 0.2M Sodium succinate, pH 8.38, read-out: Solubility
  solubility at 28 h: 4 µg/mL (≈ 0.00894 mM)
[1]; [6]
  Degradation (in words): minimal degradation
  Solubility (in words): significantly enhanced solubility
[2]
  Precipitation of the API: Some precipitation
